In US4161538A, “Substituted phenylacetic acid derivatives and process for the preparation thereof” (Sankyo Company Limited, priority 1977, dated 1979):
Where a name gives a salt, the structure may show the parent alone.

Tests used:
carrageenin edema = assay: Anti-inflammatory activity, carrageenin edema method; type: in vivo, Wistar strain rat; details: for inhibition in vivo at 25 mg/kg: Rattus norvegicus, po
Text: The carrageenin edema method was employed using Wistar strain rat. [C. A. Winter, E. A. Risley, G. W. Nuss; J. Pharmacol. Exp. Therap., 141, 369(1963)]

thermally induced pain = assay: Analgesic activity, thermally induced pain method; type: in vivo, Wistar strain rat; details: for inhibition in vivo at 19 mg/kg: Rattus norvegicus, po, 19 mg/kg P.O.; for Inhibition(%) Analgesic 19 mg/kg (P.O.): rat
Text: [Y. Iizuka, K. Tanaka; Folia Pharmacol. Jap., 70, 697(1974)]

Row | Structure (SMILES) | inhibition in vivo at 25 mg/kg (carrageenin edema; 25 mg/kg P.O.) [%] | inhibition in vivo at 19 mg/kg (thermally induced pain) [%] | Inhibition(%) Anti-inflammatory 25 mg/kg (P.O.) (carrageenin edema; rat, 25 mg/kg P.O.) [%] | Inhibition(%) Analgesic 19 mg/kg (P.O.) (thermally induced pain) [%] | Inhibition(%) Anti-inflammatory (100 mg/kg) (carrageenin edema; rat, 100 mg/kg (P.O.), reference medicine) [%]
1 | O=C(O)Cc1ccc(CC2CCCC2=NO)cc1 (single isomer, unassigned) [4-(2-Hydroxyiminocyclopentan-1-ylmethyl)phenylacetic Acid] | 49.7 | 54.8 |  |  | 
2 | CC(C(=O)O)c1ccc(CC2CCCC2=O)cc1 (stereo not shown) [2-[4-(2-Oxocyclopentan-1-ylmethyl)phenyl]-propionic Acid] | 51.4 |  |  |  | 
3 | CC(C(=O)O)c1ccc(CC2CCCC2=O)cc1 [2-(4-(2-Oxocyclopentan-1-ylmethyl)phenyl)-propionic acid I-a] [2-[4-(2-Oxocyclopentan-1-ylmethyl)phenyl]-propionic Acid L-Arginine Salt] |  |  | 69.8 | 66.7 | 
4 | CC(C(=O)O)c1ccc(CC2CCCC2=NO)cc1 (stereo not shown) [2-[4-(2-Hydroxyiminocyclopentan-1-ylmethyl)phenyl]propionic Acid] | 67.4 | 70 |  |  | 
5 | O=C(O)Cc1ccc(CC2CCCC2=O)cc1 (stereo not shown) [4-(2-Oxocyclopentan-1-ylmethyl)phenylacetic Acid] | 65.6 | 42.5 |  |  | 
6 | O=C(O)Cc1ccc(CC2CCCCC2=O)cc1 (stereo not shown) [4-(2-Oxocyclohexan-1-ylmethyl)phenylacetic Acid] | 35.1 | 45.1 |  |  | 
7 | CC(C(=O)O)c1ccc(CC2CCCC2=O)cc1 (stereo not shown) [2-(4-(2-Oxocyclopentan-1-ylmethyl)phenyl)-propionic acid] [2-[4-(2-Oxocyclopentan-1-ylmethyl)phenyl]-propionic Acid] |  |  |  | 95.8 | 
8 | CCCCC1C(=O)N(c2ccccc2)N(c2ccccc2)C1=O [Phenylbutazone, reference compound] | 30.6 | 37 |  |  | 57.4
9 | CC(C(=O)O)c1ccc(CC2CCCCC2=O)cc1 (stereo not shown) [2-[4-(2-Oxocyclohexan-1-ylmethyl)phenyl]-propionic Acid] | 79.9 | 63.3 |  |  | 
10 | CC(C(=O)O)c1ccc(CC2CCCCC2=NO)cc1 (stereo not shown) [2-[4-(2-Hydroxyiminocyclohexan-1-ylmethyl)phenyl]propionic Acid] | 78.2 | 53.1 |  |  | 
